Results on one molecule are retold here after patent US20130337014A1 (priority 2008, published 2013).

The test system of the test is Clostridium perfringens. The class given is in vivo, broiler chickens (Cobb X Cobb). The conditions noted are these: CP challenged.

Each structure is given as a SMILES string.

`CC[C@@H](C(=O)[C@@H](C)[C@@H](O)[C@H](C)[C@@H]1O[C@@H]([C@@H](CC)C(=O)O)CC[C@@H]1C)[C@H]1O[C@]2(C=C[C@@H](O)[C@]3(CC[C@@](C)([C@H]4CC[C@](O)(CC)[C@H](C)O4)O3)O2)[C@H](C)C[C@@H]1C` [S, salinomycin]: the “Necrotic Enteritis Lesion Score” value (Day 22, 0 to 3 score) is reported as 0.10. Where the note is “Days 0 to 21”, the “Average Weight Gain (kg) Days 0 to 21” value is “.592 kg” and the “Feed Conversion Ratio (feed to gain ratio) Days 0 to 21” value worked out at 1.550. Besides, for the setting “Days 0 to 42”, the “Feed Conversion Ratio (feed to gain ratio) Days 0 to 42” value is 1.914, the “Mortality (%) All Causes Days 0 to 42” value came out at 4.67% and the “Mortality (%) Necrotic Enteritis Days 0 to 42” value is 1.33%. Further, the “Feed Conversion Ratio (feed to gain ratio) Days 21 to 42” value (Days 21 to 42) is recorded as 2.126.
